Laboratory results taken from patent USRE46511E1, “Fused pyrimidine derivatives for inhibition of tyrosine kinase activity” (HANMI SCIENCE CO., LTD., priority 2010, dated 2017).
Where two headings read alike, the source gives them in different places.

Assays:
Assay type in all cases: cell-based
[1] = test system: HCC827 (EGFR DelE746_A750); test: Inhibition test for growth of cancer cell expressing EGFR (SRB), HCC827; conditions: Homo sapiens, HCC827, 72 h, read-out: GI50 HCC827 EGFR DelE746_A750;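 note: cells in 96-well plates exposed to tenfold serial dilutions from 100 µM, fixed with trichloroacetic acid, SRB-stained, absorbance read at 540 nm, DMSO under 1%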
[2] = test system: NCI-H1975 (EGFR L858R/T790M); test: Inhibition test for growth of cancer cell expressing EGFR (MTS), NCI-H1975; conditions: Homo sapiens, read-out: GI50 NCI-H1975 EGFR L858R/T790M
Procedure: (§1) A431 cell line was incubated in a high-glucose DMEM (Dulbecco's Modified Eagle's Medium) supplemented with 10% fetal bovine serum (FBS) and 1% penicillin/streptomycin (Gibco BRL), and HCC827 and NCI-H1975 cell lines were incubated in an RPMI medium supplemented with 10% FBS, 1% penicillin/streptomycin and 1% sodium pyruvate.
(§2) The cancer cell lines stored in a liquid nitrogen tank were each quickly thawed at 37° C., and centrifuged to remove the medium. The resulting cell pellet was mixed with a culture medium, incubated in a culture flask at 37° C. under 5% CO2 for 2 to 3 days, and the medium was removed. The remaining cells were washed with DPBS (Dulbecco's Phosphate Buffered Saline) and separated from the flask by using Tripsin-EDTA. […] 100 μl of the diluted cell solution was added to each well of a 96-well plate, and incubated at 37° C. under 5% CO2 for 1 day.
(§3) In case that the test compound was not soluble in DMSO, 1% HCl was added thereto and treated in a 40° C. water bath for 30 mins until a complete dissolution was attained. The DMSO solution containing test compound was diluted with a culture medium to a final concentration of 100 μM, and then diluted 10 times serially to 10^−6 μM (a final concentration of DMSO was less than 1%).
(§4) The medium was removed from each well of the 96-well plate. And then, 100 μl of a test compound solution was added to each well holding the cultured cells, and the plate was incubated at 37° C. under 5% CO2 for 72 hours (except that NCI-H1975 cells were incubated for 48 hours). After removing the medium from the plate, 50 μA of 10% trichloroacetic acid was added to each well, and the plate was kept at 4° C. for 1 hour to fix the cells to the bottom of the plate. The added 10% trichloroacetic acid solution was removed from each well, the plate was dried, 100 μA of an SRB (Sulforhodamine-B) dye solution at a concentration of 0.4% dissolved in 1% acetic acid was added thereto, and the resulting mixture was reacted for 10 mins at room temperature. After removing the dye solution, the plate was washed with water, and well dried. When the dye solution was not effectively removed by water, 1% acetic acid was used. 150 μA of 10 mM trisma base was added to each well, and the absorbance at 540 nm wavelength was determined with a microplate reader.

[3] = test system: A431 (EGFR WT); test: Inhibition test for growth of cancer cell expressing EGFR (SRB), A431; conditions: Homo sapiens, read-out: GI50 A431 EGFR WT;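 note: cells in 96-well plates exposed to tenfold serial dilutions from 100 µM down to 10^−6 µM, DMSO under 1%, SRB staining read as absorbance at 540 nm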
Procedure: as §1, §2, §3, §4

[4] = A-431, A431 cells, 72 hours, SRB

SMILES | GI50 ([1]; HCC827 cells, 72 hours, SRB) | GI50 ([2]; NCI-H1975 cells, 48 hours, MTS) | GI50 [3, 4] | GI50 [1] | GI50 ([2]; NCI-H1975, 48 h) | GI50 ([3]; A-431, 72 h)
C=CC(=O)Nc1cccc(Oc2nc(Nc3ccc(N4CCCCC4)cc3)nc3ccsc23)c1 [Example 37] | 100 to 1000 nM | < 50 nM | > 1000 nM | – | – | –
C=CC(=O)Nc1cccc(Oc2nc(Nc3ccc(N4CCN(C5CCN(C)CC5)CC4)cc3)nc3ccsc23)c1 [Example 26] | < 50 nM | < 50 nM | > 1000 nM | – | – | –
C=CC(=O)Nc1cccc(Oc2nc(Nc3ccc(CN4CCN(C5CCN(C)CC5)CC4)cc3)nc3ccsc23)c1 [Example 186] | < 50 nM | < 50 nM | > 1000 nM | – | – | –
C=CC(=O)Nc1cccc(Oc2nc(Nc3ccc4c(c3)NCCOC4)nc3ccsc23)c1 [Example 107] | < 50 nM | < 50 nM | > 1000 nM | – | – | –
C=CC(=O)Nc1cccc(Oc2nc(Nc3ccc(N4CCN(C)CC4)c(OC)c3)nc3ccoc23)c1 [Example 234] | < 50 nM | < 50 nM | > 1000 nM | – | – | –
C=CC(=O)Nc1cccc(Oc2nc(Nc3ccc(CP(=O)(OC)OC)cc3)nc3ccsc23)c1 [Example 189] | – | – | – | < 50 nM | < 50 nM | > 1000 nM
C=CC(=O)Nc1cccc(Oc2nc(Nc3ccc(S(=O)(=O)N4CCN(CC)CC4)cc3)nc3ccsc23)c1 [Example 76] | < 50 nM | 50 to 100 nM | > 1000 nM | – | – | –
C=CC(=O)Nc1cccc(Oc2nc(Nc3ccc(N4CCS(=O)(=O)CC4)cc3)nc3ccsc23)c1 [Example 32] | < 50 nM | < 50 nM | > 1000 nM | – | – | –
C=CC(=O)Nc1cccc(Oc2nc(Nc3ccc4c(c3)CCN4C(=O)CN(C)C)nc3ccsc23)c1 [Example 109] | < 50 nM | < 50 nM | > 1000 nM | – | – | –
C=CC(=O)Nc1cccc(Oc2nc(Nc3ccc(C4CCN(C(C)C)CC4)cc3)nc3ccsc23)c1 [Example 54] | < 50 nM | < 50 nM | > 1000 nM | – | – | –
C=CC(=O)Nc1cccc(Oc2nc(Nc3ccc(N4CCN(S(=O)(=O)CC)CC4)cc3)nc3ccsc23)c1 [Example 24] | < 50 nM | 50 to 100 nM | > 1000 nM | – | – | –
CS(=O)(=O)CCNCc1ccc(-c2ccc3ncnc(Nc4ccc(OCc5cccc(F)c5)c(Cl)c4)c3c2)o1 [Lapatinib, lapatinib, reference compound] | – | – | – | 100 to 1000 nM | > 1000 nM | 50 to 100 nM
C=CC(=O)Nc1cccc(Oc2nc(Nc3ccc(C4CCN(C)CC4)cc3)nc3ccsc23)c1 [Example 52] | < 50 nM | < 50 nM | > 1000 nM | – | – | –
C=CC(=O)Nc1cccc(Oc2nc(Nc3ccc(N4CCN(CC)CC4)cc3)nc3ccsc23)c1 [Example 10] | < 50 nM | < 50 nM | 100 to 1000 nM | – | – | –
C=CC(=O)Nc1cccc(Oc2nc(Nc3ccc(N4CCNCC4)c(Cl)c3)nc3ccsc23)c1 [Example 159] | < 50 nM | < 50 nM | > 1000 nM | – | – | –
C=CC(=O)Nc1cccc(Oc2nc(Nc3ccc(CN4CCCC4)cc3)nc3ccsc23)c1 [Example 176] | < 50 nM | < 50 nM | > 1000 nM | – | – | –
C=CC(=O)Nc1cccc(Oc2nc(Nc3ccc(OCCN4CCOCC4)cc3)nc3ccsc23)c1 [Example 65] | < 50 nM | < 50 nM | > 1000 nM | – | – | –
C=CC(=O)Nc1cccc(Oc2nc(Nc3ccc(CN4CCN(CC5CC5)CC4)cc3)nc3ccsc23)c1 [Example 185] | < 50 nM | < 50 nM | > 1000 nM | – | – | –
C=CC(=O)Nc1ccc(F)c(Nc2nc(Nc3ccc(N4CCN(C)CC4)cc3)nc3ccsc23)c1 [Example 218, N-(4-fluoro-3-(2-(4-(4-methyl-piperazin-1-yl)-phenylamino)-thieno[3,2-d]pyrimidin-4-ylamino)-phenyl)-acrylamide] | < 50 nM | 50 to 100 nM | > 1000 nM | – | – | –

SMILES | GI50 ([1]; HCC827 cells, 72 hours, SRB) | GI50 ([2]; NCI-H1975 cells, 48 hours, MTS) | GI50 [3, 4] | GI50 [1] | GI50 ([2]; NCI-H1975, 48 h) | GI50 ([3]; A-431, 72 h)
C=CC(=O)Nc1cccc(Oc2nc(Nc3ccc(C(C)N4CCN(CC)CC4)cc3)nc3ccsc23)c1 (stereo not drawn) [Example 184] | < 50 nM | < 50 nM | > 1000 nM | – | – | –
C=CC(=O)Nc1cccc(Oc2nc(Nc3ccc(C4CCCN(C)C4)c(F)c3)nc3ccsc23)c1 (stereo not drawn) [Example 128] | < 50 nM | < 50 nM | > 1000 nM | – | – | –
C=CC(=O)Nc1cccc(Oc2nc(Nc3ccc(N4CCN(C)CC4)cc3F)nc3ccsc23)c1 [Example 4] | 50 to 100 nM | 50 to 100 nM | > 1000 nM | – | – | –
C=CC(=O)Nc1cccc(Oc2nc(Nc3ccc(N4CCN(CC)CC4)cc3OC)nc3ccsc23)c1 [Example 112] | < 50 nM | < 50 nM | > 1000 nM | – | – | –
C=CC(=O)Nc1cccc(Oc2nc(Nc3ccc(N4CCN(S(C)(=O)=O)CC4)cc3)nc3ccsc23)c1 [Example 23] | 50 to 100 nM | < 50 nM | > 1000 nM | – | – | –
C=CC(=O)Nc1cccc(Oc2nc(Nc3ccc(N4CCNCC4)cc3)nc3ccsc23)c1 [Example 158, N-(3-(2-(4-(piperazin-1-yl)phenylamino)-thieno[3,2-d]pyrimidine-4-yloxy)-phenyl)-acrylamide] | < 50 nM | 100 to 1000 nM | > 1000 nM | – | – | –
C=CC(=O)Nc1cccc(Oc2nc(Nc3ccc(C(=O)N4CCN(CC)CC4)cc3)nc3ccsc23)c1 [Example 90] | < 50 nM | < 50 nM | > 1000 nM | – | – | –
C=CC(=O)Nc1cccc(Oc2nc(Nc3ccc(C[S+](C)[O-])cc3)nc3ccsc23)c1 (stereo not drawn) [Example 94] | < 50 nM | < 50 nM | > 1000 nM | – | – | –
C=CC(=O)Nc1cccc(Oc2nc(Nc3ccc(CCN4CCN(S(=O)(=O)C=C)CC4)cc3)nc3ccsc23)c1 [Example 100] | < 50 nM | < 50 nM | > 1000 nM | – | – | –
C=CC(=O)Nc1cccc(Oc2nc(Nc3ccc(CN4CCCCC4)cc3)nc3ccsc23)c1 [Example 178] | < 50 nM | < 50 nM | > 1000 nM | – | – | –
C=CC(=O)Nc1cccc(Oc2nc(Nc3ccc(N4CCSCC4)cc3)nc3ccsc23)c1 [Example 30] | 100 to 1000 nM | < 50 nM | > 1000 nM | – | – | –
C=CC(=O)Nc1cccc(Oc2nc(Nc3ccc(N4CCN(C5CCCCC5)CC4)cc3)nc3ccsc23)c1 [Example 13] | < 50 nM | < 50 nM | 100 to 1000 nM | – | – | –
C=CC(=O)Nc1cccc(Oc2nc(Nc3ccc(N4CCN(S(C)(=O)=O)CC4)c(F)c3)nc3ccsc23)c1 [Example 120] | < 50 nM | < 50 nM | > 1000 nM | – | – | –
C=CC(=O)Nc1cccc(Oc2nc(Nc3ccc(N4CC[S+]([O-])CC4)cc3)nc3ccsc23)c1 [Example 31] | < 50 nM | < 50 nM | > 1000 nM | – | – | –
C=CC(=O)Nc1cccc(Oc2nc(Nc3ccc(N4CCN(C)CC4)c(C)c3)nc3ccsc23)c1 [Example 8] | < 50 nM | < 50 nM | > 1000 nM | – | – | –
C=CC(=O)Nc1cccc(Oc2nc(Nc3ccc(C(=O)NCCN4CCCC4)cc3)nc3ccsc23)c1 [Example 80] | < 50 nM | < 50 nM | > 1000 nM | – | – | –
C=CC(=O)Nc1cccc(Oc2nc(Nc3ccc(N4CCN(CC)CC4)cn3)nc3ccsc23)c1 [Example 168] | < 50 nM | < 50 nM | > 1000 nM | – | – | –
C=CC(=O)Nc1ccc(F)c(Oc2nc(Nc3ccc(N4CCN(C)CC4)cc3)nc3ccsc23)c1 [Example 165] | < 50 nM | < 50 nM | > 1000 nM | – | – | –
C=CC(=O)Nc1cccc(Oc2nc(Nc3ccc(N4CCN(C)CC4)cn3)nc3ccsc23)c1 [Example 167, N-(3-(2-(5-(4-methylpiperazin-1-yl)piridin-2-ylamino)thieno[3,2-d]pyrimidin-4-yloxy)phenyl)acrylamide] | < 50 nM | < 50 nM | > 1000 nM | – | – | –
